According to the NIST ThermoML archive (doi:10.1016/j.jct.2005.10.002):
Several values for one entry are separate records, joined by “and”; a condition that tells them apart may be missing. Identical values can stand only once. Numbers after ± are expanded uncertainties.

Conditions: Liquid; for mass density: 101.33 kPa

CCC(O)(CC)CC [3-ethyl-3-pentanol]
speed of sound [m/s]
Conditions	303.15 K	313.15 K	323.15 K	333.15 K	343.15 K	353.15 K	363.15 K	373.15 K
100 kPa	1269.7 ± 4	1229.3 ± 3.9	1189.8 ± 3.8	1152.4 ± 3.8	1113 ± 3.7	1073.7 ± 3.6	1034.6 ± 3.5	994.7 ± 3.4
10000 kPa	1326.5 ± 4.1	1289.3 ± 4	1255.2 ± 4	1217.3 ± 3.9	1180.3 ± 3.8	1144 ± 3.7	1107.3 ± 3.7	1072 ± 3.6
20000 kPa	1379.5 ± 4.2	1346 ± 4.2	1311.9 ± 4.1	1277.4 ± 4	1241.1 ± 3.9	1207.5 ± 3.9	1172.7 ± 3.8	1139.6 ± 3.7
30000 kPa	1429.1 ± 4.3	1393.8 ± 4.3	1364.3 ± 4.2	1330.3 ± 4.1	1297.2 ± 4.1	1264.4 ± 4	1232.5 ± 3.9	1200.6 ± 3.9
40000 kPa	1474.3 ± 4.4	1440.8 ± 4.4	1412.8 ± 4.3	1379.9 ± 4.2	1349.5 ± 4.2	1317.4 ± 4.1	1286.4 ± 4	1256.3 ± 4
50000 kPa	1515.9 ± 4.5	1484.5 ± 4.5	1459 ± 4.4	1426.5 ± 4.3	1396 ± 4.3	1366 ± 4.2	1336.4 ± 4.1	1307.4 ± 4.1
60000 kPa	1556.7 ± 4.6	1526 ± 4.6	1500.7 ± 4.5	1470.6 ± 4.4	1441.1 ± 4.4	1411.1 ± 4.3	1383.4 ± 4.2	1354.2 ± 4.2
70000 kPa	1594.7 ± 4.7	1564.6 ± 4.6	1541 ± 4.6	1511 ± 4.5	1482.7 ± 4.5	1454.8 ± 4.4	1427.4 ± 4.3	1400 ± 4.3
80000 kPa	1632.3 ± 4.8	1602.2 ± 4.7	1580.4 ± 4.7	1550.1 ± 4.6	1522 ± 4.5	1494.6 ± 4.5	1467.9 ± 4.4	1440.9 ± 4.4
90000 kPa	1667.3 ± 4.9	1638.3 ± 4.8	1616.9 ± 4.8	1587.4 ± 4.7	1560.4 ± 4.6	1533.6 ± 4.6	1507.1 ± 4.5	1481.4 ± 4.5
100000 kPa	1700.2 ± 4.9	1672.4 ± 4.9	1651.3 ± 4.8	1622.8 ± 4.8	1596.4 ± 4.7	1570.4 ± 4.7	1544.3 ± 4.6	1519.4 ± 4.5

CCC(C)(O)CC [3-methyl-3-pentanol]
Conditions	mass density
278.15 K	840.5 ± 0.7 kg/m3 and 841 ± 0.7 kg/m3
279.15 K	839.7 ± 0.7 kg/m3 and 840.2 ± 0.7 kg/m3
280.15 K	838.9 ± 0.7 kg/m3 and 839.4 ± 0.7 kg/m3
281.15 K	838.1 ± 0.7 kg/m3 and 838.5 ± 0.7 kg/m3
282.15 K	837.2 ± 0.7 kg/m3 and 837.7 ± 0.7 kg/m3
283.15 K	836.4 ± 0.7 kg/m3 and 836.8 ± 0.7 kg/m3
284.15 K	835.6 ± 0.7 kg/m3 and 836 ± 0.7 kg/m3
285.15 K	834.8 ± 0.7 kg/m3 and 835.2 ± 0.7 kg/m3
286.15 K	833.9 ± 0.7 kg/m3 and 834.4 ± 0.7 kg/m3
287.15 K	833.5 ± 0.7 kg/m3 and 833.1 ± 0.7 kg/m3
288.15 K	832.7 ± 0.7 kg/m3 and 832.3 ± 0.7 kg/m3
289.15 K	831.9 ± 0.7 kg/m3 and 831.4 ± 0.7 kg/m3
290.15 K	831 ± 0.7 kg/m3 and 830.6 ± 0.7 kg/m3
291.15 K	830.1 ± 0.7 kg/m3 and 829.7 ± 0.7 kg/m3
292.15 K	829.3 ± 0.7 kg/m3 and 828.9 ± 0.7 kg/m3
293.15 K	828.5 ± 0.7 kg/m3 and 828 ± 0.7 kg/m3
294.15 K	827.6 ± 0.7 kg/m3 and 827.1 ± 0.7 kg/m3
295.15 K	826.7 ± 0.7 kg/m3 and 826.3 ± 0.7 kg/m3
296.15 K	825.9 ± 0.7 kg/m3 and 825.4 ± 0.7 kg/m3
297.15 K	825 ± 0.7 kg/m3 and 824.5 ± 0.7 kg/m3
298.15 K	824.1 ± 0.7 kg/m3 and 823.6 ± 0.7 kg/m3
299.15 K	823.2 ± 0.7 kg/m3 and 822.8 ± 0.7 kg/m3
300.15 K	822.3 ± 0.7 kg/m3 and 821.9 ± 0.7 kg/m3
301.15 K	821.5 ± 0.7 kg/m3 and 821 ± 0.7 kg/m3
302.15 K	820.6 ± 0.7 kg/m3 and 820.1 ± 0.7 kg/m3
303.15 K	819.7 ± 0.7 kg/m3 and 819.2 ± 0.7 kg/m3
304.15 K	818.8 ± 0.7 kg/m3 and 818.3 ± 0.7 kg/m3
305.15 K	817.9 ± 0.7 kg/m3 and 817.4 ± 0.7 kg/m3
306.15 K	816.9 ± 0.7 kg/m3 and 816.5 ± 0.7 kg/m3
307.15 K	816 ± 0.7 kg/m3 and 815.5 ± 0.7 kg/m3
308.15 K	815.1 ± 0.7 kg/m3 and 814.6 ± 0.7 kg/m3
309.15 K	814.2 ± 0.7 kg/m3 and 813.7 ± 0.7 kg/m3
310.15 K	813.3 ± 0.7 kg/m3 and 812.8 ± 0.7 kg/m3
311.15 K	812.3 ± 0.7 kg/m3 and 811.8 ± 0.7 kg/m3
312.15 K	811.4 ± 0.7 kg/m3 and 810.9 ± 0.7 kg/m3
313.15 K	810.5 ± 0.7 kg/m3 and 810 ± 0.7 kg/m3
314.15 K	809.5 ± 0.7 kg/m3 and 809 ± 0.7 kg/m3
315.15 K	808.6 ± 0.7 kg/m3 and 808.1 ± 0.7 kg/m3
316.15 K	807.6 ± 0.7 kg/m3 and 807.1 ± 0.7 kg/m3
317.15 K	806.7 ± 0.7 kg/m3 and 806.2 ± 0.7 kg/m3
318.15 K	805.7 ± 0.7 kg/m3 and 805.2 ± 0.7 kg/m3
319.15 K	804.8 ± 0.7 kg/m3 and 804.3 ± 0.7 kg/m3
320.15 K	803.8 ± 0.7 kg/m3 and 803.3 ± 0.7 kg/m3
321.15 K	802.8 ± 0.7 kg/m3 and 802.3 ± 0.7 kg/m3
322.15 K	801.9 ± 0.7 kg/m3 and 801.3 ± 0.7 kg/m3
323.15 K	800.9 ± 0.7 kg/m3 and 800.4 ± 0.7 kg/m3
324.15 K	799.9 ± 0.7 kg/m3 and 799.4 ± 0.7 kg/m3
325.15 K	798.9 ± 0.7 kg/m3 and 798.4 ± 0.7 kg/m3
326.15 K	798 ± 0.7 kg/m3 and 797.4 ± 0.7 kg/m3
327.15 K	797 ± 0.7 kg/m3 and 796.4 ± 0.7 kg/m3
328.15 K	796 ± 0.7 kg/m3 and 795.4 ± 0.7 kg/m3
329.15 K	795 ± 0.7 kg/m3 and 794.4 ± 0.7 kg/m3
330.15 K	794 ± 0.8 kg/m3 and 793.4 ± 0.8 kg/m3
331.15 K	793 ± 0.8 kg/m3 and 792.4 ± 0.8 kg/m3
332.15 K	792 ± 0.8 kg/m3 and 791.4 ± 0.8 kg/m3
333.15 K	791 ± 0.8 kg/m3 and 790.4 ± 0.8 kg/m3
334.15 K	789.9 ± 0.8 kg/m3 and 789.4 ± 0.8 kg/m3
335.15 K	788.9 ± 0.8 kg/m3 and 788.4 ± 0.8 kg/m3
336.15 K	787.9 ± 0.8 kg/m3 and 787.4 ± 0.8 kg/m3
337.15 K	786.9 ± 0.8 kg/m3 and 786.4 ± 0.8 kg/m3
338.15 K	785.9 ± 0.8 kg/m3 and 785.3 ± 0.8 kg/m3
339.15 K	784.3 ± 0.8 kg/m3
340.15 K	783.3 ± 0.8 kg/m3
341.15 K	782.3 ± 0.8 kg/m3
342.15 K	781.2 ± 0.8 kg/m3
343.15 K	780.2 ± 0.8 kg/m3
344.15 K	779.1 ± 0.8 kg/m3
345.15 K	778.1 ± 0.8 kg/m3
346.15 K	777.1 ± 0.8 kg/m3
347.15 K	776 ± 0.8 kg/m3
348.15 K	775 ± 0.8 kg/m3
349.15 K	773.9 ± 0.8 kg/m3
350.15 K	772.9 ± 0.8 kg/m3
351.15 K	771.8 ± 0.8 kg/m3
352.15 K	770.7 ± 0.8 kg/m3
353.15 K	769.7 ± 0.8 kg/m3
354.15 K	768.6 ± 0.8 kg/m3
355.15 K	767.6 ± 0.8 kg/m3
356.15 K	766.5 ± 0.8 kg/m3
357.15 K	765.4 ± 0.8 kg/m3
358.15 K	764.4 ± 0.8 kg/m3
359.15 K	763.3 ± 0.8 kg/m3
360.15 K	762.2 ± 0.8 kg/m3
361.15 K	761.1 ± 0.8 kg/m3
362.15 K	760.1 ± 0.8 kg/m3
363.15 K	759 ± 0.8 kg/m3
364.15 K	757.9 ± 0.8 kg/m3
365.15 K	756.8 ± 0.8 kg/m3
366.15 K	755.7 ± 0.8 kg/m3
367.15 K	754.6 ± 0.8 kg/m3
368.15 K	753.5 ± 0.8 kg/m3

speed of sound [m/s]
Conditions	303.15 K	313.15 K	323.15 K	333.15 K	343.15 K	353.15 K	363.15 K	373.15 K
100 kPa	1230.7 ± 3.5	1192.7 ± 3.4	1154.4 ± 3.3	1115.7 ± 3.3	1077.3 ± 3.2	1037.7 ± 3.1	998.2 ± 3	957.7 ± 2.9
10000 kPa	1290.1 ± 3.7	1254.9 ± 3.6	1219.2 ± 3.5	1183.6 ± 3.4	1148 ± 3.3	1111.6 ± 3.2	1076.2 ± 3.2	1039.5 ± 3.1
20000 kPa	1344.9 ± 3.8	1311.8 ± 3.7	1278.7 ± 3.6	1245 ± 3.6	1211.1 ± 3.5	1177.7 ± 3.4	1144.6 ± 3.3	1110.9 ± 3.2
30000 kPa	1396.1 ± 3.9	1365 ± 3.8	1332.4 ± 3.8	1300.4 ± 3.7	1268.5 ± 3.6	1236.9 ± 3.5	1205.4 ± 3.5	1174 ± 3.4
40000 kPa	1443.3 ± 4	1412.6 ± 3.9	1382.1 ± 3.9	1351.9 ± 3.8	1321.7 ± 3.7	1291.4 ± 3.7	1261.4 ± 3.6	1231.1 ± 3.5
50000 kPa	1487.1 ± 4.1	1457.9 ± 4.1	1428.9 ± 4	1399.7 ± 3.9	1370.5 ± 3.8	1342.1 ± 3.8	1312.6 ± 3.7	1283.7 ± 3.6
60000 kPa	1529.7 ± 4.2	1500.4 ± 4.2	1472.8 ± 4.1	1444.4 ± 4	1416 ± 4	1387.8 ± 3.9	1359.8 ± 3.8	1332 ± 3.8
70000 kPa	1568.8 ± 4.3	1540.7 ± 4.2	1513.6 ± 4.2	1486.1 ± 4.1	1458.4 ± 4.1	1431.2 ± 4	1404.8 ± 3.9	1377.5 ± 3.9
80000 kPa	1606.2 ± 4.4	1578.9 ± 4.3	1552.8 ± 4.3	1525.6 ± 4.2	1499.4 ± 4.2	1472.7 ± 4.1	1446.9 ± 4	1420.3 ± 4
90000 kPa	1641.7 ± 4.5	1615 ± 4.4	1589.9 ± 4.4	1563.8 ± 4.3	1537.9 ± 4.2	1511.9 ± 4.2	1486.5 ± 4.1	1461.1 ± 4.1
100000 kPa	1675.9 ± 4.6	1650 ± 4.5	1624.9 ± 4.4	1599.9 ± 4.4	1574.6 ± 4.3	1549.3 ± 4.3	1524.4 ± 4.2	1499.3 ± 4.2
